Source: US20260109712A1, “RIFAMYCINS FOR NONTUBERCULOUS MYCOBACTERIA” (priority 2022, published 2026)
Converted amounts (≈) assume the structure as drawn. Like-named read-outs stand apart in the source and are kept apart here.

What was measured:
M. szulgai ATCC 35799 = assay: MIC, anti-mycobacterial profiling; assay type: cell-based, Mycobacterium szulgai; settings: mean of two experiments
M. chelonae ATCC 35752 = assay: MIC, anti-mycobacterial profiling; assay type: cell-based, Mycobacterium chelonae; settings: mean of two experiments
[1] = system: M. avium subsp. hominisuis MAC109; assay: MIC, anti-mycobacterial profiling; assay type: cell-based, Mycobacterium avium; settings: mean of two experiments
M. kansasii ATCC 12478 = assay: MIC, anti-mycobacterial profiling; assay type: cell-based, Mycobacterium kansasii; settings: mean of two experiments
M. fortuitum ATCC 6841 = assay: MIC, anti-mycobacterial profiling; assay type: cell-based, Mycobacterium fortuitum; settings: mean of two experiments
M. abscessus ATCC 19977 = assay: MIC assay in 96-well plate format, wild-type strain; assay type: cell-based, Mycobacterium abscessus; settings: for MICWT: Table 10
Method in brief: (§1)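 Two-fold, ten-point dilutions in 7H9 with 2% DMSO; mid-log culture diluted to OD600=0.1 (1×10^7 CFU/mL). Incubated 3 days at 37 °C, shaking 110 RPM; growth = Day 3 minus Day 0 OD600, expressed as percentage of drug-free growth and plotted against concentration. Two biological replicates.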

M. xenopi ATCC 19250 = assay: MIC, anti-mycobacterial profiling; assay type: cell-based, Mycobacterium xenopi; settings: mean of two experiments
[2] = system: M. abscessus subsp. massiliense CCUG 48898T; assay: MIC, anti-mycobacterial profiling; assay type: cell-based, Mycobacterium abscessus; settings: mean of two experiments
Procedure: (§2) MIC determination was carried out in 96-well plate format as previously described.^[13-14] 96-well plates were initially set up with 100 μL of 7H9 per well. For each compound, a ten-point two-fold dilution series starting at twice the desired highest concentration was dispensed onto the 96-well plates using a Tecan D300e Digital Dispenser, with the DMSO concentration normalized to 2%. M. abscessus culture grown to mid-log phase (OD600=0.4-0.6) was diluted to OD600=0.1 (1×10^7 CFU/mL). 100 μL of the resulting bacteria suspension was dispensed onto the 96-well plates containing compounds to give a final volume of 200 μL per well with an initial OD600=0.05 (5×10^6 CFU/mL) and final DMSO concentration of 1%. Final compound concentration ranges were typically 50-0.098 μM, 6.25-0.012 μM, 0.006-3.13 μM, or 0.003-1.56 μM. Untreated control wells are included on each plate that contain bacteria suspension and 1% DMSO. Plates were sealed with parafilm, stored in boxes with wet paper towels and incubated at 37° C. with shaking (110 RPM). Plates were incubated for 3 days. To determine growth, OD600 was measured using a Tecan Infinite M200 plate reader on Day 0 and Day 3. Two biological replicates were performed. Clarithromycin was included in each experiment as a positive control.
(§3) For each well on the 96-well plate, bacterial growth was calculated by subtracting the Day 0 OD600 value from the Day 3 OD600 value. For each compound series, the bacterial growth values for the untreated control wells were averaged to give the average drug-free bacterial growth. For compound-containing wells, percentage growth was calculated by dividing their growth values by the average drug-free bacterial growth for the compound series and multiplying by 100. For each compound series, we plotted percentage growth versus compound concentration. By visual inspection of the dose-response curve, we determined the MIC of a compound as the compound concentrations that would result in 90% growth inhibition.
(§4) The MIC data was determined using methods disclosed in Example 1.

[3] = system: M. abscessus subsp. bolletii CCUG 50184T; assay: MIC, anti-mycobacterial profiling; assay type: cell-based, Mycobacterium abscessus; settings: mean of two experiments
Procedure: as §2, §3, §4

[4] = system: M. intracellulare ATCC 13950; assay: MIC, anti-mycobacterial profiling; assay type: cell-based, Mycobacterium intracellulare; settings: mean of two experiments
M. chimaera CCUG 50989T = assay: MIC, anti-mycobacterial profiling; assay type: cell-based, Mycobacterium chimaera; settings: mean of two experiments
M. simiae ATCC 25275 = assay: MIC, anti-mycobacterial profiling; assay type: cell-based, Mycobacterium simiae; settings: mean of two experiments
CYP3A4 = settings: human, 10 μM
Procedure: The threshold cycle (CT) was measured for each isoform cDNA by real time qRT-PCR. The mRNA level of each isoform was assessed by the relative quantifiation with reference gene (GAPDH) as the normalizer method. The normalized fold induction was calculated by 2^−ΔΔCT method, in which 0.1% DMSO was used as the reference (vehicle control). The induction potential of each test compound was analyzed by comparing its fold induction to a pre-determined cutoff value for each lot of hepatocytes. The hepatocytes lots used in this study were validated using 10 known inducers and 5 known non-inducers for each isozyme. A cutoff value is determined based on the validation study for each hepatocytes lot.

Mab ATCC 19977 (Smooth) = assay: Acute Mab mouse infection model (GM-CSF knockout mice); assay type: in vivo; settings: 25 mg/kg every day for 7 days
Procedure: In vivo efficacy of compounds UMN22 and UMN34 were evaluated in acute Mab mouse infection model.

Mycobacterium abscessus = assay: MIC against Mycobacterium abscessus (strain not given); assay type: cell-based
[5] = Plasma protein binding assay (rapid equilibrium dialysis); assay type: in vitro ADME; settings: plasma
Method in brief: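 Rapid equilibrium dialysis ran 4 h at 37° C (300 RPM) with compound-spiked plasma (10,000 ng/mL) on one side and PBS on the other. Each side was then mixed 1:1 […] to equalise matrix before LC-MS/MS quantification.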

THP-1 = assay: Fold-killing in THP-1; assay type: cell-based; settings: expressed in log-10 scale
[6] = Mouse pharmacokinetics studies; assay type: in vivo, CD-1 mice; settings: for ƒAUC/MIC: Table 20; for F / Vd / clearance: female, CD-1, mouse, in vivo
Method in brief: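 Plasma from K2EDTA-collected blood analysed by LC-MS/MS with multiple-reaction monitoring in electrospray positive mode. Parameters derived by non-compartmental analysis.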

Δarr M. abscessus = assay: MIC assay, isogenic arr-deleted strain; assay type: cell-based, Mycobacterium abscessus; settings: for MICΔorr: Table 10
Method in brief: as §1

RFB-R1 M. abscessus = assay: microbe, parasite or virus in culture; assay type: cell-based, Mycobacterium abscessus; settings: Mycobacteroides abscessus, read-out: RFB-R1 M. abscessus MIC
[7] = Mycobacteroides abscessus, 72 h, Table 22, read-out: MICMab
[8] = Mycobacteroides abscessus, against Mycobacterium abscessus, Table 19, read-out: MIC
[9] = against Mycobacterium abscessus, Table 20, read-out: MIC

Compound: CO[C@H]1/C=C/O[C@@]2(C)Oc3c(C)c(O)c4c(O)c(c(/C=N/N5CCN(C)CC5)c(O)c4c3C2=O)NC(=O)/C(C)=C\C=C\[C@H](C)[C@H](O)[C@@H](C)[C@@H](O)[C@@H](C)[C@H](OC(C)=O)[C@@H]1C [RIF]
- MIC (M. szulgai ATCC 35799): 0.06 µM (≈ 0.0494 µg/mL)
- MIC (M. chelonae ATCC 35752): 1.4 µM (≈ 1.15 µg/mL)
- MIC [1]: 0.04 µM (≈ 0.0329 µg/mL)
- MIC (M. kansasii ATCC 12478): 0.3 µM (≈ 0.247 µg/mL)
- MIC (M. fortuitum ATCC 6841): 6.7 µM (≈ 5.51 µg/mL)
- MIC (M. abscessus ATCC 19977; M. abscessus subsp. abscessus ATCC 19977, mean of two experiments, read-out: MIC): 9.5 µM (≈ 7.82 µg/mL)
- MIC (M. xenopi ATCC 19250): 0.04 µM (≈ 0.0329 µg/mL)
- MIC [2]: 13 µM (≈ 10.7 µg/mL)
- MIC [3]: 28 µM (≈ 23 µg/mL)
- MIC [4]: 0.06 µM (≈ 0.0494 µg/mL)
- MIC (M. chimaera CCUG 50989T): 0.07 µM (≈ 0.0576 µg/mL)
- MIC (M. simiae ATCC 25275): >100 µM

Compound: CO[C@H]1/C=C/O[C@@]2(C)Oc3c(C)c(O)c4c(c3C2=O)C2=NC3(CCN(CC(C)C)CC3)NC2=C(NC(=O)/C(C)=C/C=C/[C@H](C)[C@H](O)[C@@H](C)[C@@H](O)[C@@H](C)[C@H](OC(=O)c2cccnc2)[C@@H]1C)C4=O [UMN22]
- CYP3A4 gene fold-induction at 10 μM (CYP3A4): 14.1
- reduction in lung CFU burden vs RFB and untreated groups (Mab ATCC 19977 (Smooth)): ~2 log10
- MICWT (M. abscessus ATCC 19977): 0.025 µM
- MIC (Mycobacterium abscessus; [7]): 0.025 µM (≈ 0.0228 µg/mL)
- MIC (Mycobacterium abscessus; [8]): 0.025 µM (≈ 0.0228 µg/mL)
- MIC (Mycobacterium abscessus; [9]): 0.025 µM (≈ 0.0228 µg/mL)
- plasma unbound (ƒu, %) ([5]; 4 h, 10000 ng/mL): 2.0%
- Fold-killing in THP-1 (THP-1): 3.8
- ƒAUC/MIC [6]: 45.0
- F [6]: 78%
- Vd [6]: 1.6 L/kg
- clearance [6]: 3 mL/min/kg
- MICΔorr (Δarr M. abscessus): 0.027 µM

Compound: COc1ccccc1NC(=O)O[C@H]1[C@H](C)[C@H](O)[C@H](C)[C@@H](O)[C@@H](C)/C=C/C=C(\C)C(=O)NC2=C3NC4(CCN(CC(C)C)CC4)N=C3c3c(c(O)c(C)c4c3C(=O)[C@@](C)(O/C=C/[C@H](OC)[C@H]1C)O4)C2=O [UMN34]
- reduction in lung CFU burden vs RFB and untreated groups (Mab ATCC 19977 (Smooth)): ~2 log10
- MICWT (M. abscessus ATCC 19977): 0.015 µM
- MIC (Mycobacterium abscessus; [9]): 0.015 µM (≈ 0.0143 µg/mL)
- plasma unbound (ƒu, %) [5]: 0.12%
- plasma unbound fraction [5]: 0.12%
- Fold-killing in THP-1 (THP-1): 4.9
- ƒAUC/MIC [6]: 0.9
- MICΔorr (Δarr M. abscessus): 0.014 µM

Compound: CO[C@H]1/C=C/O[C@@]2(C)Oc3c(C)c(O)c4c(c3C2=O)C2=NC3(CCN(CC(C)C)CC3)NC2=C(NC(=O)/C(C)=C/C=C/[C@H](C)[C@H](O)[C@@H](C)[C@@H](O)[C@@H](C)[C@H](OC(=O)c2cncnc2)[C@@H]1C)C4=O [UMN46]
- CYP3A4 gene fold-induction at 10 μM (CYP3A4): 7.9
- MICWT (M. abscessus ATCC 19977): 0.018 µM
- MIC (Mycobacterium abscessus; [7]): 0.018 µM (≈ 0.0164 µg/mL)
- MIC (Mycobacterium abscessus; [8]): 0.018 µM (≈ 0.0164 µg/mL)
- MIC (Mycobacterium abscessus; [9]): 0.018 µM (≈ 0.0164 µg/mL)
- plasma unbound (ƒu, %) ([5]; 4 h, 10000 ng/mL): 4.7%
- Fold-killing in THP-1 (THP-1): 4.4
- ƒAUC/MIC [6]: 87.8
- F [6]: 86%
- Vd [6]: 2.1 L/kg
- clearance [6]: 4 mL/min/kg
- MICΔorr (Δarr M. abscessus): 0.025 µM

Compound: CO[C@H]1/C=C/O[C@@]2(C)Oc3c(C)c(O)c4c(O)c(c(/C=N/N5CCN(C)CC5)c(O)c4c3C2=O)NC(=O)/C(C)=C\C=C\[C@H](C)[C@H](O)[C@@H](C)[C@@H](O)[C@@H](C)[C@H](OC(C)=O)[C@@H]1C [rifampicin, reference compound]
- MIC (RFB-R1 M. abscessus): > 100 µM
- MIC (M. abscessus ATCC 19977; Mycobacteroides abscessus, ATCC19977, read-out: WT Mab MIC): 5.3 µM (≈ 4.36 µg/mL)
- MIC (Mycobacterium abscessus; [7]): 5.3 µM (≈ 4.36 µg/mL)
- Δarr Mab MIC (Δarr M. abscessus; arr-deleted strain, 90% growth inhibition): 0.26 µM
